The record followed here is patent US10125135B2, “Chemical compounds” (AstraZeneca AB, priority 2016, dated 2018).

≈ marks a conversion by molar mass, not a printed value. Bounds are passed on as bounds.

The nature of series [1]: Thermodynamic solubility, shake-flask. The series is classed as physicochemical. The settings on record: thermodynamic from solid; aqueous phosphate buffer pH 7.4, 24 hours at 25° C. The method, then: The thermodynamic solubility of a research compound is measured under standard conditions. It is a shake-flask approach that uses 10 mM DMSO solutions which are supplied from the Compound Managements liquid store and is a high throughput method. The dried compounds are equilibrated in an aqueous phosphate buffer (pH 7.4) for 24 hours at 25° C., the portion with the dissolved compound is then separated from the remains. The solutions are analyzed and quantified using UPLC/MS/MS, QC-samples are incorporated in each assay-run to ensure the quality of the assay.

Series [2] addresses estrogen receptor (ERα) in CAMA-1 human breast cancer cell line (Homo sapiens (Human), UniProt P03372). Nature of the series: Western blotting assay, CAMA-1 cells. The format is cell-based. The settings on record: 100 nM compound, 48 h; normalised to vehicle (0%) and 100 nM fulvestrant (100%). The method, then:
The ability of compounds to down-regulate estrogen receptor (ER) was assessed by western blotting using human breast cancer cell lines (MCF-7 and CAMA-1). Cells were plated into 12-well tissue culture-treated plates at 0.5×10^6/well in phenol red-free RPMI containing 2 mM L-glutamine and 5% (v/v) charcoal treated foetal calf serum (F6765, Sigma). Cells were incubated with compounds (100 nM) or vehicle control (0.1% DMSO) for 48 h at 37° C., 5% CO2 before washing once with PBS and lysing with 80 μl lysis buffer (25 mM Tris/HCl, 3 mM EDTA, 3 mM EGTA, 50 mM NaF, 2 mM sodium orthovanadate, 0.27 M sucrose, 10 mM β-glycerophosphate, 5 mM sodium pyrophosphate, 0.5% TritonX-100, pH 6.8) on ice.
Cells were scraped, sonicated and centrifuged prior to performing a protein assay (DC Bio-Rad Protein kit, 500-0116) and making samples to a protein concentration of 1-2 mg/m1 in lysis buffer containing 1× LDS Sample Buffer (NP0007, Invitrogen) and 1× NuPAGE sample reducing agent (NP0009, Invitrogen). Samples were boiled for 10 min at 95° C. and then frozen at −20° C. until ready for use.
10-20 μg protein was loaded onto 26-well Criterion gels (BioRad 345-0034). Gels were run at 125 V for 1 hr 25 min in running buffer (24 mM Tris Base Sigma, 192 mM Glycine, 3.5 mM SDS, made up in distilled water). Gels were then transferred at 30V for 2 hr in transfer buffer (25 mM Tris, 192 mM Glycine, 20% (v/v) methanol, pH 8.3, made up in distilled water) onto nitrocellulose membrane. The blot was stained with Ponceau S (P7170, Sigma) and cut according to appropriate molecular weight markers.
Membranes were blocked for 1 hour at room temp in 5% Marvel (w/v) in phosphate-buffered saline containing 0.05% Tween™ 20 (PBS/Tween). Blots were then incubated with anti-ERα (SP1) rabbit monoclonal antibody (Thermofisher) diluted 1:1000 at 4° C. overnight (with gentle shaking) followed by several washes with PBS/Tween. Secondary anti-rabbit HRP antibody (7074, CST) diluted 1:2000 dilution was incubated for 2 h at room temperature (with gentle shaking) followed by several washes with PBS/Tween. All antibodies were made up in 5% Marvel (w/v) in PBS/Tween.
The immunoblots were developed using Pierce WestDura chemiluminescent reagents (Thermo Scientific 34076) and developed/quantified on the G-box using Syngene software. Down-regulation of the ERα receptor was normalised to the vehicle control (0% down-regulation) and the 100 nM fulvestrant control (100% down-regulation) run within the same gel.
For orientation: A western blot detects proteins with antibodies after separation by electrophoresis.

Series [3] deals with ERα receptor in MCF-7 human ductal carcinoma breast cell line (Homo sapiens (Human), UniProt P03372). In words: MCF-7 ER down regulation assay (immuno-fluorescence). The format is cell-based. The settings on record: MCF-7 cells, 18-22 hours incubation; read-out: ER down regulation IC50 value.
Chain of ERα receptor in MCF-7 human ductal carcinoma breast cell line (P03372 whole entry): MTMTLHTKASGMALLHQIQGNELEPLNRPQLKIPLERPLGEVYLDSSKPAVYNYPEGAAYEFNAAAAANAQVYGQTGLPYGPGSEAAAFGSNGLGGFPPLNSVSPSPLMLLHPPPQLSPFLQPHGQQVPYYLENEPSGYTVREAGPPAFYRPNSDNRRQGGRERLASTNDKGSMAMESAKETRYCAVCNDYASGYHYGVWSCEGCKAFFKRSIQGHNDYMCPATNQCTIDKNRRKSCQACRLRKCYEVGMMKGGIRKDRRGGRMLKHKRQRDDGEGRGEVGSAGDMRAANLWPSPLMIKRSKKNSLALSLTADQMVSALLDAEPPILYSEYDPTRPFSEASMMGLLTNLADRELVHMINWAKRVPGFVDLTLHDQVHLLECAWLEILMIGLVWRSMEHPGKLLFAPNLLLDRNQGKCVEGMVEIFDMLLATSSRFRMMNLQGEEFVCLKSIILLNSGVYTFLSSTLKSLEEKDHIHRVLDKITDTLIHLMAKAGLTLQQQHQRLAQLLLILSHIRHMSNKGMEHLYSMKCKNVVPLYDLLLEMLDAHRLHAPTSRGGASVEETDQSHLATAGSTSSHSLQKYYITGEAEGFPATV

Chain of estrogen receptor (ERα) in CAMA-1 human breast cancer cell line (P03372 whole entry): as above

In the case of `COc1cc(OCCN2CC(CF)C2)ccc1[C@@H]1c2ccc3[nH]ncc3c2C[C@@H](C)N1CC(C)(C)F` [Example 5, (6S,8R)-7-(2-fluoro-2-methylpropyl)-6-(4-(2-(3-(fluoromethyl)azetidin-1-yl)ethoxy)-2-methoxyphenyl)-8-methyl-6,7,8,9-tetrahydro-3H-pyrazolo[4,3-f]isoquinoline], the solubility (usually the dissolved amount per volume that the medium holds) at 24 h in series [1] came to 263 µM (≈ 131 µg/mL). In addition, the “CAMA1 Western % ER deg vs Fv” value in series [2] is on record as 74%. In addition, the DC50 in series [3] is 0.16 nM.
For `C[C@@H]1Cc2c(ccc3[nH]ncc23)[C@@H](c2ccc(OCCN3CC(CF)C3)cn2)N1CC1(F)CC1` [Example 8, (6S,8R)-7-((1-fluorocyclopropyl)methyl)-6-(5-(2-(3-(fluoromethyl)azetidin-1-yl)ethoxy)pyridin-2-yl)-8-methyl-6,7,8,9-tetrahydro-3H-pyrazolo[4,3-f]isoquinoline], the solubility at 24 h in series [1] is above 1000 µM. For the same compound, in series [2], the “CAMA1 Western % ER deg vs Fv” value is given as 86%. Moreover, the DC50 in series [3] came to 0.39 nM.
For `COc1cc(OCCN2CC(CF)C2)ccc1[C@@H]1c2ccc3[nH]ncc3c2C[C@@H](C)N1CC(C)C` [Example 9, (6S,8R)-6-(4-(2-(3-(fluoromethyl)azetidin-1-yl)ethoxy)-2-methoxyphenyl)-7-isobutyl-8-methyl-6,7,8,9-tetrahydro-3H-pyrazolo[4,3-f]isoquinoline], in that order: above 1000 µM, 81% and 0.5 nM.
For `C[C@@H]1Cc2c(ccc3[nH]ncc23)[C@@H](c2ccc(OCCN3CC(CF)C3)cn2)N1CC(F)F` [Example 51, (6S,8R)-7-(2,2-difluoroethyl)-6-(5-(2-(3-(fluoromethyl)azetidin-1-yl)ethoxy)pyridin-2-yl)-8-methyl-6,7,8,9-tetrahydro-3H-pyrazolo[4,3-f]isoquinoline], in that order: 974 µM (≈ 448 µg/mL), 82% and 0.54 nM.
For `COc1cc(OCCN2CC(CF)C2)ccc1[C@@H]1c2ccc3[nH]ncc3c2C[C@@H](C)N1CC1(F)CC1` [Example 6, (6S,8R)-7-((1-fluorocyclopropyl)methyl)-6-(4-(2-(3-(fluoromethyl)azetidin-1-yl)ethoxy)-2-methoxyphenyl)-8-methyl-6,7,8,9-tetrahydro-3H-pyrazolo[4,3-f]isoquinoline], in that order: 957 µM (≈ 475 µg/mL), 87% and 0.13 nM.
On to `C[C@@H]1Cc2c(ccc3[nH]ncc23)[C@@H](c2ccc(OCCN3CC(CF)C3)cn2)N1CC(F)(F)F` [Example 49, (6S,8R)-6-(5-(2-(3-(fluoromethyl)azetidin-1-yl)ethoxy)pyridin-2-yl)-8-methyl-7-(2,2,2-trifluoroethyl)-6,7,8,9-tetrahydro-3H-pyrazolo[4,3-f]isoquinoline], for which the solubility at 24 h in series [1] is above 1000 µM. Further, the “CAMA1 Western % ER deg vs Fv” value in series [2] was determined as 77%. For the same compound, in series [3], the DC50 came to 0.21 nM.
